In US6680323B2, “Dihydropyrimidines and uses thereof” (Synaptic Pharmaceutical Corporation, priority 1998, dated 2004):
Where a name gives a salt, the structure may show the parent alone.

How the values were obtained:
human α1b receptor = molecular target: T1, human α1b receptor (Homo sapiens, UniProt P35368); assay: Radioligand binding ([3H]prazosin) at cloned human α1b receptor; settings: membranes of transfected LM(tk−) cells, [3H]prazosin 0.5 nM; read-out: Binding affinity hα1b
T1 construct: The entire coding region of α1b (1563 bp); expressed in transfected cells
T1 sequence (P35368 1-520): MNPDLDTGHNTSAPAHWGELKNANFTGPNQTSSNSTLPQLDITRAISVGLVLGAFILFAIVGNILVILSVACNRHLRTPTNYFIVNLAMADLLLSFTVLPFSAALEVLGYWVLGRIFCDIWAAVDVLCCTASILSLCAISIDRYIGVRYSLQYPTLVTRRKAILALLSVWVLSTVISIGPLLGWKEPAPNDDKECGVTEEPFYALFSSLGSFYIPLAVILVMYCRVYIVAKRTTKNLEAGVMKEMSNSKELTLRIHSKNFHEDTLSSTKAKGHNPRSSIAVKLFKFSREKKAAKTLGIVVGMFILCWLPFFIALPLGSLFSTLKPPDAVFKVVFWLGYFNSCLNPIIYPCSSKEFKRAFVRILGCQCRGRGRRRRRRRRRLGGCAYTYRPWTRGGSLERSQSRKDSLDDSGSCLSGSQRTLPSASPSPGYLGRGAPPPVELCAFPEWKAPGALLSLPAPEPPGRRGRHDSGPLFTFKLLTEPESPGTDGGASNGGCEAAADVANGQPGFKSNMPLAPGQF
Method: The activity of compounds at the different human receptors was determined in vitro using cultured cell lines that selectively express the receptor of interest. These cell lines were prepared by transfecting the cloned cDNA or cloned genomic DNA or constructs containing both genomic DNA and cDNA encoding the human α-adrenergic receptors as follows:
α1b Human Adrenergic Receptor
The entire coding region of α1b (1563 bp), including 200 base pairs and 5′ untranslated sequence (5′ UT) and 600 bp of 3′ untranslated sequence (3′ UT), was cloned into the EcoRI site of pCEXV-3 eukaryotic expression vector.
The construct involved ligating the full-length containing EcoRI brainstem cDNA fragment from λ ZapII into the expression vector. Stable cell lines were selected as described above. The cell line used herein was designated L-α1B and was deposited with the American Type Culture Collection, 12301 Parklawn Drive, Rockville, Md. 20852, U.S.A. under the provisions of the Budapest Treaty for the International Recognition of the Deposit of Microorganisms for the Purposes of Patent Procedure. The cell line L-α1B was accorded ATCC Accession No. CR 11139, on Sep. 29, 1992.
Radioligand Binding Assays for α1 Receptors
Transfected cells from culture flasks were scraped into 5 ml of 5 mM Tris-HCl, 5 mM EDTA, pH 7.5, and lysed by sonication. The cell lysates were centrifuged at 1000 rpm for 5 min at 4° C., and the supernatant was centrifuged at 30,000×g for 20 min at 4° C. The pellet was suspended in 50 mM Tris-HCl, 1 mM MgCl2, and 0.1% ascorbic acid at pH 7.5. Binding of the α1 antagonist [^3H]prazosin (0.5 nM, specific activity 76.2 Ci/mmol) to membrane preparations of LM(tk−) cells was done in a final volume of 0.25 ml and incubated at 37° C. for 20 min. Nonspecific binding was determined in the presence of 10 μM phentolamine. The reaction was stopped by filtration through GF/B filters using a cell harvester. Inhibition experiments, routinely consisting of 7 concentrations of the tested compounds, were analyzed using a non-linear regression curve-fitting computer program to obtain Ki values.

human α2a receptor = molecular target: T2, human α2a receptor (Homo sapiens, UniProt P08913); assay: Competition binding ([3H]rauwolscine) at cloned human α2a receptor; settings: transfected LM(tk−) cells, [3H]rauwolscine 0.5 nM; read-out: Binding affinity hα2a
T2 construct: expressed in transfected cells
T2 sequence (P08913 1-465): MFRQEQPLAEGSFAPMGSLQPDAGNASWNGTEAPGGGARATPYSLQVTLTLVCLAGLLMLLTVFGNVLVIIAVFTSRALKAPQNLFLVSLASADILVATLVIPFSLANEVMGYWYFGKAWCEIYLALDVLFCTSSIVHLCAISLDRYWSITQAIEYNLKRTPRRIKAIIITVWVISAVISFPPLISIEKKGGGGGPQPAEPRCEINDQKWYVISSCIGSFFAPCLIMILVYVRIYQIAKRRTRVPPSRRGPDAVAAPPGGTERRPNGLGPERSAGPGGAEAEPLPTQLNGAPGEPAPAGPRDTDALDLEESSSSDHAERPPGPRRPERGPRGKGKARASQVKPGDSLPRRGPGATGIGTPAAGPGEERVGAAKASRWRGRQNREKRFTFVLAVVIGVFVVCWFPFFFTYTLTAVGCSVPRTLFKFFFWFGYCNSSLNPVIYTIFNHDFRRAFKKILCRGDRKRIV
Source text: α2 Human Adrenergic Receptors
To determine the potency of α1 antagonists at the α2 receptors, LM(tk−) cell lines stably transfected with the genes encoding the α2a, α2b, and α2c receptors were used. The cell line expressing the α2a receptor is designated L-α2A, and was deposited on Nov. 6, 1992 under ATCC Accession No. CRL 11180. The cell line expressing the α2b receptor is designated L-NGC-α2B, and was deposited on Oct. 25, 1989 under ATCC Accession No. CRL10275. The cell line expressing the α2c receptor is designated L-α2C, and was deposited on Nov. 6, 1992 under ATCC Accession No. CRL-11181. All the cell lines were deposited with the American Type Culture Collection, 12301 Parklawn Drive, Rockville, Md. 20852, U.S.A. under the provisions of the Budapest Treaty for the International Recognition of the Deposit of Microorganisms for the Purposes of Patent Procedure. Cell lysates were prepared as described above (see Radioligand Binding Assays), and suspended in 25 mM glycylglycine buffer (pH 7.6 at room temperature). Equilibrium competition binding assay were performed using [3H]rauwolscine (0.5 nM), and nonspecific binding was determined by incubation with 10 μM phentolamine. The bound radioligand was separated by filtration through GF/B filters using a cell harvester.

Ki (human α1b receptor) [nM] | Ki (human α2a receptor) [µM] | SMILES
1600 | 1.5 | O=C1OCC2=C1C(c1ccc(F)c(F)c1)N(C(=O)NCCCN1CCC(c3ccccn3)CC1)C(=O)N2 (single isomer, unassigned; (+)) [Compound 8, (+)-1-3-{[4-(3,4-Difluorophenyl)-2,5-dioxo-1,2,5,7-tetrahydro-4H-furo[3,4-d]-pyrimidine-3-carbonyl]amino}-propyl-4-(2-pyridyl)-piperidine]
530 | 0.38 | COC(=O)C1=C(CO)NC(=O)N(C(=O)NCCCN2CCC(c3ccccn3)CC2)[C@H]1c1ccc(F)c(F)c1 [Compound 7, (+)-1,2,3,6-Tetrahydro-1-{N-[4-(2-pyridyl)piperidin-1-yl]propyl}carboxamido-5-methoxycarbonyl-4-hydroxymethyl-6-(3,4-difluorophenyl)-2-oxopyrimidine]

Second part, the compound before the results:

SMILES | Ki (human α1b receptor) [nM] | Ki (human α2a receptor) [µM]
COCC1=C(C(=O)OC)[C@H](c2ccc(F)c(F)c2)N(C(=O)NCCCO)C(=O)N1 [Compound 1, (+)-1,2,3,6-Tetrahydro-1-(3-hydroxypropyl)carboxamido-5-methoxycarbonyl-4-methoxymethyl-6-(3,4-difluorophenyl)-2-oxo-pyrimidine] | > 50000 | 40
COCC1=C(C(=O)OC)[C@H](c2ccc(F)c(F)c2)N(C(=O)NCCCN2CCC(c3cccc[n+]3[O-])CC2)C(=O)N1 [Compound 2, (+)-1,2,3,6-Tetrahydro-1-{N-[4-(2-pyridyl)piperidin-1-yl]propyl}carboxamido-5-methoxycarbonyl-4-methoxymethyl-6-(3,4-difluorophenyl)-2-oxopyrimidine-pyridine-N-oxide hydrochloride] | 1500 | 4.2
COCC1=C(C(=O)OC)[C@H](c2ccc(F)c(F)c2)N(C(=O)NCCC[n+]2ccc(-c3ccccn3)cc2)C(=O)N1 [Compound 3, 4-(2-Pyridyl)-1-{3-[5-carboxymethyl-4-methoxymethyl-2-oxo-6(S)-(3,4-difluorphenyl)-1,2,3,6-tetrahydropyrimidin-1-yl]carboxyaminopropyl}pyridinium chloride] | > 2000 | 5.62
O=C(O)CCNC(=O)N1C(=O)NC2=C(C(=O)OC2)[C@@H]1c1ccc(F)c(F)c1 [Compound 9] | > 2000 | > 50
